From ChEMBL document CHEMBL4342407, “Thieno[2,3-d]pyrimidine as a promising scaffold in medicinal chemistry: Recent advances” (Bioorg Med Chem, 2019)

Key:
[1] = tested on: Bacillus subtilis; experiment: Antibacterial activity against Bacillus subtilis assessed as zone inhibition at 500 ug/ml by cup plate agar diffusion method; assay type: functional; conditions: read-out: IZ
[2] = tested on: Escherichia coli; experiment: Antibacterial activity against Escherichia coli assessed as zone inhibition at 500 ug/ml by cup plate agar diffusion method; assay type: functional; conditions: read-out: IZ
[3] = tested on: Staphylococcus aureus; experiment: Antibacterial activity against Staphylococcus aureus assessed as zone inhibition at 500 ug/ml by cup plate agar diffusion method; assay type: functional; conditions: read-out: IZ
[4] = tested on: Pseudomonas aeruginosa; experiment: Antibacterial activity against Pseudomonas aeruginosa assessed as zone inhibition at 500 ug/ml by cup plate agar diffusion method; assay type: functional; conditions: read-out: IZ
[5] = tested on: HeLa; experiment: Antiproliferative activity against human HeLa after 24 hrs by MTT assay; assay type: functional, cell-based
[6] = tested on: MCF7; experiment: Antiproliferative activity against human MCF7 after 24 hrs by MTT assay; assay type: functional, cell-based; conditions: MCF7, 24 h
[7] = tested on: Rattus norvegicus; experiment: Antiinflammatory activity in po dosed Wistar rat assessed as reduction in carrageenan-induced paw edema pretreated for 1 hr followed by carrageenan challenge and measured over 2 to 4 hrs post carrageenan challenge by plethysmography; assay type: functional
[8] = tested on: Rattus norvegicus; experiment: Antiinflammatory activity in Wistar rat model of Freund's adjuvant-induced arthritis assessed as inhibition of arthritis by measuring reduction in paw volume at 75 mg/kg, po administered once daily for 8 days starting from day 7 post Freund's adjuvant treatment and measured after 18 days by mercury plethysmography relative to control; assay type: functional
[9] = tested on: Mus musculus; experiment: Antiinflammatory activity in Swiss mouse assessed as inhibition of TPA-induced ear edema at 1 mg/ear applied topically and measured 4 hrs post-TPA challenge relative to control; assay type: functional
[10] = tested on: Rattus norvegicus; experiment: Antiinflammatory activity in Wistar rat assessed as inhibition of cotton pellet-induced granuloma at 75 mg/kg, po administered daily for 7 days and measured on day 8 relative to control; assay type: functional
[11] = tested on: Candida albicans; experiment: […] activity against Candida albicans assessed as zone inhibition at 500 ug/ml by cup plate agar diffusion method; assay type: functional; conditions: read-out: IZ
[12] = tested on: HEp-2; experiment: Antiproliferative activity against human Hep2 after 24 hrs by MTT assay; assay type: functional, cell-based; conditions: HEp-2, 24 h
[13] = tested on: HepG2; experiment: Antiproliferative activity against human HepG2 after 24 hrs by MTT assay; assay type: functional, cell-based; conditions: HepG2, 24 h
[14] = tested on: PC-3; experiment: Antiproliferative activity against human PC3 after 24 hrs by MTT assay; assay type: functional, cell-based; conditions: PC-3, 24 h
[15] = tested on: Mus musculus; experiment: Analgesic activity in Swiss albino mouse assessed as protection against acetic acid-induced writhing at 15 mg/kg, po pretreated for 30 mins followed by acetic acid challenge and measured after 20 mins relative to control; assay type: functional
[16] = Ulcerogenic activity in Sprague-Dawley rat assessed as ulcer index at 20 mg/kg, ip pretreated followed by pylorus ligation and measured at 4 hrs post ligation; assay type: toxicity, organism-based; conditions: in vivo
[17] = tested on: MCF7; experiment: Antiproliferative activity against human MCF7 by MTT assay; assay type: functional, cell-based
[18] = tested on: HepG2; experiment: Antiproliferative activity against human HepG2 cells by MTT assay; assay type: functional, cell-based
[19] = Ulcerogenic activity in Wistar albino rat assessed as ulcer index at 250 mg/kg, ip pretreated for 1 hr followed by pylorus ligation and measured at 4 hrs post ligation; assay type: toxicity, organism-based; conditions: in vivo
[20] = tested on: Rattus norvegicus; experiment: Antiinflammatory activity in Sprague-Dawley rat assessed as protection against carrageenan-induced edema at 40 mg/kg, po pretreated for 1 hr followed by carrageenan challenge and measured after 3 hrs by mercury plethysmometer relative to control; assay type: functional
[21] = tested on: Rattus norvegicus; experiment: Anti-ulcer activity in Wistar albino rat assessed as reduction in pylorus ligation induced ulcer at 250 mg/kg, ip pretreated for 1 hr followed by pylorus ligation and measured at 4 hrs post ligation; assay type: functional
[22] = tested on: MGC-803; experiment: Antiproliferative activity against human MGC803 at 50 ug/ml after 48 hrs by MTT assay; assay type: functional; conditions: MGC-803, 48 h
[23] = tested on: ECa-109 cell line; experiment: Antiproliferative activity against human EC109 at 50 ug/ml after 48 hrs by MTT assay; assay type: functional; conditions: ECa-109, 48 h
[24] = tested on: HepG2; experiment: Antiproliferative activity against human HepG2 at 50 ug/ml after 48 hrs by MTT assay; assay type: functional; conditions: HepG2, 48 h

`CC1(C)S[C@@H]2[C@H](NC(=O)[C@H](N)c3ccccc3)C(=O)N2[C@H]1C(=O)O` [AMPICILLIN] showed a zone of inhibition at 500 µg/mL [1] of 24 mm, a zone of inhibition at 500 µg/mL [2] of 25 mm and a zone of inhibition at 500 µg/mL [3] of 22 mm. It also gave a zone of inhibition at 500 µg/mL [4] of 21 mm.
Work on `Nc1c(C(=O)Nc2ccc(Cl)cc2)sc2nc(N3CCOCC3)nc(-c3ccccc3)c12` yielded an IC50 [5] of 50 µM and an IC50 [6] of 18.9 µM.
With `CN1C(C(=O)Nc2ccccn2)=C(O)c2ccccc2S1(=O)=O` [PIROXICAM] the ED50 [7] was 7.8 mg/kg, the inhibition in vivo at 75 mg/kg [8] was 51.6% and the “inhibition (INH)” value [9] was 12.2%. For the same compound, the inhibition in vivo at 75 mg/kg [10] was 67.9%.
Work on `CC(=O)O[C@H]1C(=O)[C@@]2(C)[C@H]([C@H](OC(=O)c3ccccc3)[C@]3(O)C[C@H](OC(=O)[C@H](O)[C@@H](NC(=O)c4ccccc4)c4ccccc4)C(C)=C1C3(C)C)[C@]1(OC(C)=O)CO[C@@H]1C[C@@H]2O` [PACLITAXEL] yielded an IC50 [5] of 45.8 µM and an IC50 [6] of 40.4 µM.
Work on `c1csc(C2=Nc3ccccc3SC(c3cc4cncnc4s3)C2)c1` (stereo not given) yielded a zone of inhibition at 500 µg/mL [11] of 19.6 mm, a zone of inhibition at 500 µg/mL [1] of 19.4 mm and a zone of inhibition at 500 µg/mL [2] of 19.4 mm. The zone of inhibition at 500 µg/mL [3] was 19.2 mm and the zone of inhibition at 500 µg/mL [4] was 19.4 mm.
With `Cc1c(C(=O)/C=C/c2cccs2)sc2nc(S)n(-c3ccccc3)c(=O)c12` the IC50 [5] was 15.4 µM, the IC50 [12] was 25.7 µM and the IC50 [13] was 26.4 µM. It also gave an IC50 [6] of 24 µM and an IC50 [14] of 18.4 µM.
With `CC(=O)Oc1ccccc1C(=O)O` [ASPIRIN] the Activity [15] was 53%, the ED50 [7] was 69.3 mg/kg and the inhibition in vivo at 75 mg/kg [8] was 40%. The “inhibition (INH)” value [9] was 20.1%, the inhibition in vivo at 75 mg/kg [10] was 30.1% and the UI [16] was 1.1 to 1.7.
In the case of `CSC1=[N+](N)C(c2ccccc2)c2c(sc3c2CCCC3)N1.[I-]` (stereo not given), the ED50 [7] is reported as 72.5 mg/kg, the inhibition in vivo at 75 mg/kg [8] is reported as 10% and the “inhibition (INH)” value [9] is reported as 20.8%. For the same compound, the inhibition in vivo at 75 mg/kg [10] was 29.9%.
For `FC(F)(F)c1nc(NCc2ccccc2)c2c3c(sc2n1)CCC3`, the IC50 [17] was 11.8 µM and the IC50 [18] was 13.5 µM.
For `C[C@]12CC[C@H]3[C@@H](CC=C4CC(O)CC[C@@]43C)[C@@H]1CC[C@@H]2c1csc(N)c1C(=O)NNC(=S)Nc1ccccc1` (stereo not given in full), the UI [19] was 2.11, the Activity [20] was 81% and the inhibition in vivo at 250 mg/kg [21] was 41.4%.
`Nc1c(C(=O)Nc2ccccc2)sc2nc(N3CCOCC3)nc(-c3ccccc3)c12` showed an IC50 [5] of 40.7 µM and an IC50 [6] of 52.6 µM.
For `CC(=O)NN1C(S)=Nc2sc3c(c2C1c1ccccc1)CCCC3` (stereo not given), the ED50 [7] was 66.7 mg/kg, the inhibition in vivo at 75 mg/kg [8] was 28.9% and the “inhibition (INH)” value [9] was 35.1%. It also gave an inhibition in vivo at 75 mg/kg [10] of 39.9%.
In the case of `Nc1c(C(=O)Nc2ccc(I)cc2)sc2nc(N3CCOCC3)nc(-c3ccccc3)c12`, the IC50 [5] is reported as 60.8 µM and the IC50 [6] is reported as 42.8 µM.
In the case of `COc1ccccc1CNc1nc(C(F)(F)F)nc2sc3c(c12)CCC3`, the IC50 [17] is reported as greater than 100 µM and the IC50 [18] is reported as greater than 100 µM.
Work on `Cc1c(C(=O)/C=C/c2cc(Br)cs2)sc2nc(S)n(-c3ccccc3)c(=O)c12` yielded an IC50 [5] of 17.8 µM, an IC50 [12] of 31.3 µM and an IC50 [13] of 30.1 µM. The IC50 [6] was 25.8 µM and the IC50 [14] was 27.7 µM.
`CCc1cc2c(=O)n(NC(c3ccc([N+](=O)[O-])cc3)P(=O)(OC(C)C)OC(C)C)c(C)nc2s1` (stereo not given) gave an inhibition at 50 µg/mL [22] of 84.3%, an inhibition at 50 µg/mL [23] of 58.5% and an inhibition at 50 µg/mL [24] of 58.1%.
Compound `CC(=C(C#N)C(=O)NN)[C@H]1CC[C@H]2[C@@H]3CC=C4CC(O)CC[C@]4(C)[C@H]3CC[C@]12C` (stereo not given in full) has a UI [19] of 2.11, an Activity [20] of 90% and an inhibition in vivo at 250 mg/kg [21] of 41.4%.
With `COc1ccc(NC(=O)c2sc3nc(N4CCOCC4)nc(-c4ccccc4)c3c2N)cc1` the IC50 [5] was 61.9 µM and the IC50 [6] was 27.8 µM.
Work on `FC(F)(F)c1ccc(C2=Nc3ccccc3SC(c3cc4cncnc4s3)C2)cc1` (stereo not given) yielded a zone of inhibition at 500 µg/mL [11] of 16 mm, a zone of inhibition at 500 µg/mL [1] of 18.8 mm and a zone of inhibition at 500 µg/mL [2] of 16.2 mm. The zone of inhibition at 500 µg/mL [3] was 17 mm and the zone of inhibition at 500 µg/mL [4] was 16.1 mm.
